# Measurements published in patent publication EP0224249A1, “Amorphous benzimidazole derivatives” (SYNTEX (U.S.A.) INC., priority 1985, dated 1987).
# Tests used:
# Dissolution rate at pH 2 = type: physicochemical
# Text: The dissolution rate of amorphous fenbendazole versus crystalline fenbendazole at pH 2 was studied as a model for showing the bioavailability of the amorphous compound.
# Ostertagia spp. [1] = assay: Anthelmintic efficacy in sheep carrying oxfendazole-resistant nematodes; type: in vivo
# Method: (§1) Animals are then subjected to necropsy on day 6 post-treatment. Gastrointestinal tract, lungs, and liver are examined using standard parasitological techniques for nematode and trematode parasites.
# (§2) (B) Sheep carrying nematodes with varying degrees of resistance to oxfendazole were treated with either levamisole, oxfendazole, or amorphous oxfendazole in accordance with the above procedure.
# (§3) • Ost = Ostertagia spp. • Tri = Trichostrongylus spp. • Nem = Nematodirus spp. • Oes = Oesophagostomum spp. • Tr.o = Trichuris ovis
# Oesophagostomum spp. = assay: as above; type: in vivo
# Method: as §1, §2, §3
# Nematodirus spp. = assay: as above; type: in vivo
# Method: as §1, §2, §3
# Trichostrongylus spp. [2] = assay: as above; type: in vivo
# Method: as §1, §2, §3
# Trichuris ovis = assay: as above; type: in vivo
# Method: as §1, §2, §3
# Ostertagia spp. [3] = assay: Anthelmintic efficacy in naturally infected goats, necropsy on day 6 post-treatment; type: in vivo; conditions: necropsy day 6 post-treatment
# Method: (§4) (A) Fifteen (15) goats, preferably from a single source, known to be infected with nematode parasites as evidenced by positive fecal egg counts are used. The animals would be preferably of one sex. They will have been to be contaminated with goat parasite eggs and larvae, particularly Ostertagia spp. (hereinafter "Ost") and Trichostrongylus spp. (hereinafter "Tri") • 1. - Control • 2. - 9 mg amorphous oxfendazole/kg • 3. - 15 mg oxfendazole/kg Animals are then subjected to necropsy on day 6 post-treatment. Gastrointestinal tract, lungs, and liver are examined using standard parasitological techniques for nematode and trematode parasites.
# Trichostrongylus spp. [4] = assay: as above; type: in vivo; conditions: necropsy day 6 post-treatment
# Method: as §4
# nematode parasites = assay: Overall comparison of the goat and sheep efficacy studies; type: in vivo; conditions: goat and sheep studies together
# Text: (A) Fifteen (15) goats, preferably from a single source, known to be infected with nematode parasites as evidenced by positive fecal egg counts are used. The animals would be preferably of one sex. They will have been to be contaminated with goat parasite eggs and larvae, particularly Ostertagia spp. (hereinafter "Ost") and Trichostrongylus spp. (hereinafter "Tri")
# as §1, §2
# [5] = Blood plasma levels after oral administration to dogs; type: in vivo; conditions: 10 mg/kg; for Area Under the Curve / Area Under the Curve, mean (n = 6): plasma concentration vs time, 18720 min
# Method: Dogs were administered orally either amorphous or crystalline oxfendazole at a dose of 10 mg/kg.
# Blood samples were drawn and analyzed before administration and on days 1, 2, 3, 7, 10, and 13 following administration. The area under the curve was calculated for plasma concentration vs time profile.
# [6] = administered to humans; cited from earlier work
smiles,measurement,setting,value
"COC(=O)Nc1nc2ccc(Sc3ccccc3)cc2[nH]1 [amorphous fenbendazole, methyl 5-(phenylthio)-lH-benzimidazol-2-yl carbamate]",% Dissolved,"Dissolution rate at pH 2; pH 2, 5 min",73%
same,% Dissolved,"Dissolution rate at pH 2; pH 2, 15 min",91%
same,% Dissolved,"Dissolution rate at pH 2; pH 2, 30 min",125%
same,% Dissolved,"Dissolution rate at pH 2; pH 2, 60 min",130%
same,% Dissolved,"Dissolution rate at pH 2; pH 2, 90 min",112%
same,solubility compared with crystalline fenbendazole,"Dissolution rate at pH 2; pH 2, over time",more soluble than crystalline fenbendazole and remains more soluble over time
c1ccc([C@H]2CN3CCSC3=N2)cc1 [Levamisole],Percent Efficacy Ost,Ostertagia spp. [1]; 8 mg/kg,98%
same,Percent Efficacy Oes,Oesophagostomum spp.; 8 mg/kg,100%
same,Percent Efficacy Nem,Nematodirus spp.; 8 mg/kg,100%
same,Percent Efficacy Tri,Trichostrongylus spp. [2]; 8 mg/kg,49%
same,Percent Efficacy Tr. o,Trichuris ovis; 8 mg/kg,37%
"COC(=O)Nc1nc2ccc([S+]([O-])c3ccccc3)cc2[nH]1 (stereo not drawn) [amorphous oxfendazole, methyl 5-(phenylsulfinyl)-lH-benzimidazol-2-yl carbamate]",Percent Efficacy Ost,Ostertagia spp. [3]; 9 mg/kg,70%
same,Percent Efficacy Tri,Trichostrongylus spp. [4]; 9 mg/kg,98%
same,"dose for approximately equivalent efficacy, relative to that required for oxfendazole",nematode parasites,about 60%
same,Area Under the Curve,[5]; Dog No. A,20465.0 ng/ml hr
same,Area Under the Curve,[5]; Dog No. B,9717.5 ng/ml hr
same,Area Under the Curve,[5]; Dog No. C,11592.5 ng/ml hr
same,Area Under the Curve,[5]; Dog No. D,24245.0 ng/ml hr
same,Area Under the Curve,[5]; Dog No. E,12653.8 ng/ml hr
same,Area Under the Curve,[5]; Dog No. F,25475.0 ng/ml hr
same,plasma level of oxfendazole compared with oxfendazole in commercially available form,[5]; dogs,higher plasma level of oxfendazole
same,"Area Under the Curve, mean (n = 6)",[5]; dogs,17358.1 ng/ml hr
same,Percent Efficacy Ost,Ostertagia spp. [1]; 3 mg/kg,55%
same,Percent Efficacy Ost,Ostertagia spp. [1]; 6 mg/kg,22%
same,Percent Efficacy Oes,Oesophagostomum spp.; 3 mg/kg,100%
same,Percent Efficacy Oes,Oesophagostomum spp.; 6 mg/kg,100%
same,Percent Efficacy Nem,Nematodirus spp.; 3 mg/kg,57%
same,Percent Efficacy Nem,Nematodirus spp.; 6 mg/kg,82%
same,Percent Efficacy Tri,Trichostrongylus spp. [2]; 3 mg/kg,100%
same,Percent Efficacy Tri,Trichostrongylus spp. [2]; 6 mg/kg,100%
same,Percent Efficacy Tr. o,Trichuris ovis; 3 mg/kg,9.5%
same,Percent Efficacy Tr. o,Trichuris ovis; 6 mg/kg,69%
"COC(=O)Nc1nc2ccc(C(=O)c3ccccc3)cc2[nH]1 [crystalline mebendazole, methyl 5-benzoyl-lH-benzimidazol-2-yl carbamate]",absorbed,[6],3-4%
"COC(=O)Nc1nc2cc(Sc3ccccc3)ccc2[nH]1 [crystalline fenbendazole, methyl 5-(phenylthio)-lH-benzimidazol-2-yl carbamate]",% Dissolved,"Dissolution rate at pH 2; pH 2, 5 min",21%
same,% Dissolved,"Dissolution rate at pH 2; pH 2, 15 min",22%
same,% Dissolved,"Dissolution rate at pH 2; pH 2, 30 min",46%
same,% Dissolved,"Dissolution rate at pH 2; pH 2, 60 min",41%
same,% Dissolved,"Dissolution rate at pH 2; pH 2, 90 min",25%
"COC(=O)Nc1nc2ccc([S+]([O-])c3ccccc3)cc2[nH]1 (stereo not drawn) [oxfendazole, methyl 5-(phenylsulfinyl)-lH-benzimidazol-2-yl carbamate]",Percent Efficacy Ost,Ostertagia spp. [3]; 15 mg/kg,77%
same,Percent Efficacy Tri,Trichostrongylus spp. [4]; 15 mg/kg,80%
same,Area Under the Curve,"[5]; Dog No. A, listed as Crystalline Ox.",2700.0 ng/ml hr
same,Area Under the Curve,"[5]; Dog No. B, listed as Crystalline Ox.",2622.0 ng/ml hr
same,Area Under the Curve,"[5]; Dog No. C, listed as Crystalline Ox.",2130.0 ng/ml hr
same,Area Under the Curve,"[5]; Dog No. D, listed as Crystalline Ox.",3341.0 ng/ml hr
same,Area Under the Curve,"[5]; Dog No. E, listed as Crystalline Ox.",3107.5 ng/ml hr
same,Area Under the Curve,"[5]; Dog No. F, listed as Crystalline Ox.",4149.5 ng/ml hr
same,"Area Under the Curve, mean (n = 6)","[5]; dogs, listed as Crystalline Ox.",3008.4 ng/ml hr
same,Percent Efficacy Ost,Ostertagia spp. [1]; 5 mg/kg,0%
same,Percent Efficacy Ost,Ostertagia spp. [1]; 10 mg/kg,28%
same,Percent Efficacy Oes,Oesophagostomum spp.; 5 mg/kg,100%
same,Percent Efficacy Oes,Oesophagostomum spp.; 10 mg/kg,100%
same,Percent Efficacy Nem,Nematodirus spp.; 5 mg/kg,22%
same,Percent Efficacy Nem,Nematodirus spp.; 10 mg/kg,80%
same,Percent Efficacy Tri,Trichostrongylus spp. [2]; 5 mg/kg,100%
same,Percent Efficacy Tri,Trichostrongylus spp. [2]; 10 mg/kg,99.7%
same,Percent Efficacy Tr. o,Trichuris ovis; 5 mg/kg,38%
same,Percent Efficacy Tr. o,Trichuris ovis; 10 mg/kg,62%
